US7582679B2, “Compositions containing solid ibuprofen concentrates and methods of making solid ibuprofen concentrates” (Pharmaceutics International Incorporated, priority 2006, dated 2009)

Experiments:
[1] = Comparative dissolution of hard gelatin capsules, USP apparatus type II, purified water; type: physicochemical; details: size 1 hard gelatin capsule, 200 mg ibuprofen, paddle 50 rpm, 900 mL purified water
Description: Ibuprofen powder (supplied by BASF) was similarly filled manually into size 1 hard gelatin capsules to yield 200 mg ibuprofen per capsule.
Capsules were tested using a USP dissolution apparatus type II with a paddle speed of 50 rpm and 900 mL of purified water as a dissolution medium.

[2] = Angle of repose (flowability of powder); type: physicochemical
Description: The dried granules were lubricated with 0.25% w/w magnesium stearate and compressed using a Piccola 10 station rotary tablet press. The lubricated granules had angle of repose 26.56° compared with ibuprofen powder (supplied by BASF) having an angle of repose 48.01°. The resultant compressed tablets had hardness 6.1 kp and thickness 4.80 mm.

## CC(C)Cc1ccc(C(C)C(=O)O)cc1 (stereo not shown) [ibuprofen powder, ibuprofen]
[1]; 10 min
  % dissolution: 2.2%
[1]; 20 min
  % dissolution: 5.9%
[1]; 30 min
  % dissolution: 9.2%
[2]
  angle of repose: 48.01 °
